For assay [1], the system named is Ghsr-null and wild-type mice. Description: Caloric restriction: DG apoptosis (AC3) and forced swim test. The format is in vivo, mouse. An excerpt: FIG. 42. Effects of P7C3 on caloric restriction-induced DG cell survival and antidepressant-like behavior, as measured by FST. (a) Protocol schematic. (b, c) AC3-immunoreactive cell counts in the DG of calorie-restricted and ad libitum-fed mice treated with P7C3 vs. vehicle. (d, e) FST immobility time. Group sizes indicated. (f-k) Representative photomicrograph images of AC3-immunolabeled ventral DG sections. (l-p) Magnified images of AC3-immunoreactive cells. Scale bar in (k; 150 μm) pertains to (f-k), in (p; 25 μm) pertains to (l-p). *P<0.05, **P<0.01, as compared to respective ad libitum-fed, vehicle-treated control group. ^#P<0.05, comparing compound treatment.
Prolonged caloric restriction in wild-type mice elicits an antidepressant-like response in the FST (decreased immobility), whereas this effect is not observed in Ghsr-null mice. To investigate whether this might be related to differences in apoptosis in the DG, similar to that observed above following CSDS, Ghsr-null and wild-type littermates were exposed to ad libitum food access vs. 60% caloric restriction for 10 days. Five days prior to this exposure and throughout the 10-day feeding period, mice received either P7C3 or vehicle. On Day 16, FST performance was assessed, followed by sacrifice of the animals for quantification of AC3+ cells in the DG (FIG. 42, panel a).
The 60% calorie restriction protocol was performed as previously (M. Lutter et al., The orexigenic hormone ghrelin defends against depressive symptoms of chronic stress. Nat Neurosci 11, 752 (2008)). Mice received twice-daily injections of either P7C3 (20 mg/kg/d in divided doses) or vehicle 5 days prior to and during 10 days of calorie restriction or ad-lib feeding, replicating the injection protocol used for the CSDS studies. On Day 16, the forced swim test was performed for each mouse as done previously.

In assay [2] the test system is newborn neurons in the dentate gyrus. Description: BrdU pulse-chase and doublecortin staining with oral dosing for 30 days. The format is in vivo, mouse (C57/B6). As for the experimental part:
FIG. 10A and FIG. 10B: Example 45 Compound enhances the survival of newborn neurons in the dentate gyrus. […] (FIG. 10B) Example 45 Compound enhances hippocampal neurogenesis by promoting survival of newborn neurons. Three month old wild type C57/B6 male mice were exposed to orally-delivered Example 45 Compound or vehicle for 30 days (n=5 animals/group), administered a single pulse of BrdU via IP injection (150 mg/kg), and then sacrificed 1 hour, 1 day, 5 days or 30 days later for immunohistochemical detection of BrdU incorporation into cells localized in the subgranular layer of the dentate gyrus. […] In this longer-term trial, BrdU+ cells were observed both in the SGZ and the granular layer of the dentate gyrus.
The nature of the cells produced in the subgranular zone of the dentate gyrus was investigated when Example 45 Compound was administered as follows. Animals were exposed to oral administration of Example 45 Compound for 30 days. Brain tissue was then prepared for immunohistochemical staining with an antibody to doublecortin (DCX), a microtubule-associated protein that serves as a marker of neurogenesis in the dentate gyrus by virtue of transient expression in newly formed neurons, but not glial cells, between the timing of their birth and final maturation (Brown et al., 2003).
Example 45 Compound-mediated neurogenesis was next investigated to see whether it was attributable to increased cell proliferation or protection of newborn cells from cell death during the time between their birth and eventual incorporation into the granular layer of the dentate gyrus. This was accomplished by comparing the ability of Example 45 Compound to enhance either short- or long-term increases in the incorporation of BrdU in the dentate gyrus (FIG. 10B). Animals exposed to orally-delivered Example 45 Compound or vehicle for 30 days were administered a single pulse of BrdU via IP injection. Short-term effects on neuron birth were monitored by sacrificing animals one hour post-BrdU injection, followed by fixation of the tissue, sectioning and immunohistochemical detection of BrdU incorporation into cells localized in the subgranular layer of the dentate gyrus. […] It is hypothesized that these cells represent mature neurons that have migrated into the granular layer, completed the differentiation process, and incorporated themselves into the dentate gyrus as properly wired neurons. Observations supportive of this interpretation will be presented in a subsequent section of this document. In summary, these experiments give evidence that Example 45 Compound enhances the formation of neurons in the mature hippocampus, and that its mode of action would appear to take place at some point subsequent to their birth.

The subject of assay [3] is cultured primary cortical neurons. Description: Mitochondrial membrane potential (TMRM) after A23187 in cultured primary cortical neurons. As to conditions: rat E14 cortical neurons. The format is cell-based.
Excerpt: (§1) FIG. 23: Example 45 Compound Preserves Mitochondrial Membrane Potential in Cultured Primary Cortical Neurons. Cortical neurons cultures from rats on embryonic day 14 were loaded with tetramethylrhodamine methyl ester (TMRM) dye after 6 days of maturation. […] The remaining panels are from cells that were exposed to the calcium ionophore A23187 at time zero. With vehicle-alone, cortical neuron mitochondrial membrane potential was rapidly lost after exposure to the ionophore. […] Results shown are representative of 10 fields analyzed in each of 2 experimental runs for all conditions.
as §1, with “It was also examined whether” for “FIG. 23:”, “preserves mitochondrial membrane potential” for “Preserves Mitochondrial Membrane Potential”, “cultured primary cortical neurons (FIG. 23).” for “Cultured Primary Cortical Neurons.”

Where [4] appears, read: caloric-restricted Ghsr-null mice.
[5] abbreviates: caloric-restricted wild-type mice.

Each structure is given as a SMILES string. “Also recorded” adds a separate entry of the source.

With `OC(CNc1ccccc1)Cn1c2ccc(Br)cc2c2cc(Br)ccc21` (stereo not drawn) [Example P7C3], in assay [1] (setting [4]), the “AC3+ cells in the DG” value is “blocked the increase in apoptosis observed after caloric restriction” and the FST immobility entry is “significantly decrease immobility”. In assay [1] (setting [5]), the “AC3+ cells in the DG” value is on record as “did not further reduce the number of AC3+ cells” and the FST immobility entry is “had no further effect on reducing immobility”.
In the case of `OC(CNc1ccccc1)Cn1c2ccc(Br)cc2c2cc(Br)ccc21` (stereo not drawn) [Example 45 Compound], the “doublecortin (DCX) staining of newborn neurons” value in assay [2] (20 mg/kg daily for 30 days by oral gavage) is listed as “increased dramatically; also recorded: substantially increased”. Also, in assay [2] (5 days after BrdU pulse), the “increase in BrdU+ cells compared to vehicle” value is recorded as 25%. The “increase in abundance of BrdU+ cells in the dentate gyrus relative to vehicle” value in assay [2] (daily oral dose for 30 days starting 24 hours after BrdU pulse) worked out at 5 fold. Further, in assay [2] (oral for 30 days, 1 hour or 1 day after BrdU pulse), the “BrdU+ cells versus vehicle, short term” value is “did not lead to an elevation in the level of BrdU-positive cells relative to vehicle; also recorded: No significant differences”. In assay [3], the “dose giving full protection of mitochondrial membrane potential” value is given as 1 mM.

(Values after patent US10183011B2, “Anti-depression compounds” (Board of Regents of the University of Texas System, priority 2009, dated 2019).)
